Measurements: article PMC7753147, “High-throughput determination of protein affinities using unmodified peptide libraries in nanomolar scale” (iScience, 2020)

How the values were obtained:
FL-geph = assay: µSPOT peptide microarray binding assay with full-length geph
native geph = assay: µSPOT peptide microarray binding assay with native geph from mouse brain lysate
gephE = assay: µSPOT peptide microarray binding assay with recombinant gephE
[1] = µSPOT full positional scan of GlyRβ 15-mer DLRSNDFSIVGSLPR, intensity normalised to wild-type sequence (= 1)
[2] = µSPOT full positional scan of GlyRβ 15-mer DLRSNDFSIVGSLPR, native geph, intensity normalised to wild-type sequence (= 1)
[3] = µSPOT peptide microarray, GlyRβ full positional scan, intensity normalised to wild-type sequence DLRSNDFSIVGSLPR (=1)
[4] = µSPOT peptide microarray, GlyRβ full positional scan, native geph from mouse brain lysate, intensity normalised to wild-type sequence DLRSNDFSIVGSLPR (=1)
[5] = µSPOT peptide microarray, GlyRβ full positional scan, recombinant gephE, intensity normalised to wild-type sequence DLRSNDFSIVGSLPR (=1)

Q: How did the “Fl-geph Binding Intensity [norm.]” value (FL-geph; [1]) turn out when “DLRSNDFSIVGSLCR [GlyRβ_Full_Positional_Scan_277]” was run?
A: 0.67 norm.

Q: What about the “Native geph Binding Intensity [norm.]” value (native geph; [2]) of the same sequence?
A: 0.36 norm.

Q: What about the “gephE Binding Intensity [norm.]” value (gephE; [1]) of the same sequence?
A: 0.62 norm.

Q: With “DPRSNDFSIVGSLPR [GlyRβ_Full_Positional_Scan_025]” as the sequence, how does the “Fl-geph Binding Intensity [norm.]” value (FL-geph; [3]) read?
A: 1.01 norm.

Q: And the “Native geph Binding Intensity [norm.]” value (native geph; [4])?
A: 1.02 norm.

Q: And the “gephE Binding Intensity [norm.]” value (gephE; [5])?
A: 1.01 norm.

Q: “DLRSNDFSIVGELPR [GlyRβ_Full_Positional_Scan_231]” was tested. Which “Fl-geph Binding Intensity [norm.]” value (FL-geph; [1]) did it give?
A: 0.84 norm.

Q: What about the “Native geph Binding Intensity [norm.]” value (native geph; [2]) of the same sequence?
A: 0.49 norm.

Q: And the “gephE Binding Intensity [norm.]” value (gephE; [1])?
A: 0.64 norm.

Q: “DLRSNDFSIVGSAPR [GlyRβ_Full_Positional_Scan_241]” was tested. Which “Fl-geph Binding Intensity [norm.]” value (FL-geph; [1]) did it give?
A: 1.07 norm.

Q: And the “Native geph Binding Intensity [norm.]” value (native geph; [2])?
A: 1 norm.

Q: And the “gephE Binding Intensity [norm.]” value (gephE; [1])?
A: 0.9 norm.

Q: “DLRSNDFSIVGSLKR [GlyRβ_Full_Positional_Scan_274]” was tested. Which “Fl-geph Binding Intensity [norm.]” value (FL-geph; [1]) did it give?
A: 1.01 norm.

Q: What about the “Native geph Binding Intensity [norm.]” value (native geph; [2]) of the same sequence?
A: 0.21 norm.

Q: What about the “gephE Binding Intensity [norm.]” value (gephE; [1]) of the same sequence?
A: 0.58 norm.

Q: “DLRKNDFSIVGSLPR [GlyRβ_Full_Positional_Scan_074]” was tested. Which “Fl-geph Binding Intensity [norm.]” value (FL-geph; [3]) did it give?
A: 0.94 norm.

Q: And the “Native geph Binding Intensity [norm.]” value (native geph; [4])?
A: 1.05 norm.

Q: And the “gephE Binding Intensity [norm.]” value (gephE; [5])?
A: 0.92 norm.

Q: With “DLRSNDFSIVGSKPR [GlyRβ_Full_Positional_Scan_254]” as the sequence, how does the “Fl-geph Binding Intensity [norm.]” value (FL-geph; [1]) read?
A: 0.68 norm.

Q: And the “Native geph Binding Intensity [norm.]” value (native geph; [2])?
A: 0.24 norm.

Q: What about the “gephE Binding Intensity [norm.]” value (gephE; [1]) of the same sequence?
A: 0.59 norm.

Q: Which “Fl-geph Binding Intensity [norm.]” value (FL-geph; [3]) does the source give for “PLRSNDFSIVGSLPR [GlyRβ_Full_Positional_Scan_005]” here?
A: 1.16 norm.

Q: And the “Native geph Binding Intensity [norm.]” value (native geph; [4])?
A: 0.72 norm.

Q: And the “gephE Binding Intensity [norm.]” value (gephE; [5])?
A: 1.1 norm.

Q: What does the source list for “DLRPNDFSIVGSLPR [GlyRβ_Full_Positional_Scan_065]”?
A: Fl-geph Binding Intensity [norm.] (FL-geph; [3]): 0.64 norm.; Native geph Binding Intensity [norm.] (native geph; [4]): 0.71 norm.; gephE Binding Intensity [norm.] (gephE; [5]): 0.89 norm.

Q: With “DARSNDFSIVGSLPR [GlyRβ_Full_Positional_Scan_021]” as the sequence, how does the “Fl-geph Binding Intensity [norm.]” value (FL-geph; [3]) read?
A: 1.04 norm.

Q: And the “Native geph Binding Intensity [norm.]” value (native geph; [4])?
A: 0.95 norm.

Q: And the “gephE Binding Intensity [norm.]” value (gephE; [5])?
A: 1.01 norm.

Q: For “DLHSNDFSIVGSLPR [GlyRβ_Full_Positional_Scan_053]”, which “Fl-geph Binding Intensity [norm.]” value (FL-geph; [3]) is on record?
A: 1.21 norm.

Q: And the “Native geph Binding Intensity [norm.]” value (native geph; [4])?
A: 1.37 norm.

Q: What about the “gephE Binding Intensity [norm.]” value (gephE; [5]) of the same sequence?
A: 1.01 norm.

Q: What does the source list for “DLRSNDISIVGSLPR [GlyRβ_Full_Positional_Scan_123, GlyR β 414-428 variant F420I]”?
A: Fl-geph Binding Intensity [norm.] (FL-geph; [3]): 0.66 norm.; Native geph Binding Intensity [norm.] (native geph; [4]): 0.46 norm.; gephE Binding Intensity [norm.] (gephE; [5]): 0.57 norm.

Q: How did the “Fl-geph Binding Intensity [norm.]” value (FL-geph; [3]) turn out when “DLRSNDFSTVGSLPR [GlyRβ_Full_Positional_Scan_176, GlyR β 414-428 variant I422T]” was run?
A: 0.95 norm.

Q: What about the “Native geph Binding Intensity [norm.]” value (native geph; [4]) of the same sequence?
A: 0.31 norm.

Q: And the “gephE Binding Intensity [norm.]” value (gephE; [5])?
A: 0.53 norm.

Q: Which “Fl-geph Binding Intensity [norm.]” value (FL-geph; [3]) does the source give for “DLRSNYFSIVGSLPR [GlyRβ_Full_Positional_Scan_109]” here?
A: 0.7 norm.

Q: What about the “Native geph Binding Intensity [norm.]” value (native geph; [4]) of the same sequence?
A: 0.38 norm.

Q: What about the “gephE Binding Intensity [norm.]” value (gephE; [5]) of the same sequence?
A: 0.82 norm.

Q: What does the source list for “DLRSNDFSIVGTLPR [GlyRβ_Full_Positional_Scan_236]”?
A: Fl-geph Binding Intensity [norm.] (FL-geph; [1]): 0.98 norm.; Native geph Binding Intensity [norm.] (native geph; [2]): 1.05 norm.; gephE Binding Intensity [norm.] (gephE; [1]): 0.94 norm.

Q: Which results are given for “DLRSNDFSIVGSVPR [GlyRβ_Full_Positional_Scan_246]”?
A: Fl-geph Binding Intensity [norm.] (FL-geph; [1]): 1.06 norm.; Native geph Binding Intensity [norm.] (native geph; [2]): 0.82 norm.; gephE Binding Intensity [norm.] (gephE; [1]): 0.92 norm.

Q: Which results are given for “ALRSNDFSIVGSLPR [GlyRβ_Full_Positional_Scan_001]”?
A: Fl-geph Binding Intensity [norm.] (FL-geph; [3]): 1.11 norm.; Native geph Binding Intensity [norm.] (native geph; [4]): 0.77 norm.; gephE Binding Intensity [norm.] (gephE; [5]): 1.06 norm.

Q: Which results are given for “DLRSNDRSIVGSLPR [GlyRβ_Full_Positional_Scan_132, GlyR β 414-428 variant F420R]”?
A: Fl-geph Binding Intensity [norm.] (FL-geph; [3]): 0.77 norm.; Native geph Binding Intensity [norm.] (native geph; [4]): 0.41 norm.; gephE Binding Intensity [norm.] (gephE; [5]): 0.63 norm.

Q: For “DSRSNDFSIVGSLPR [GlyRβ_Full_Positional_Scan_035]”, which “Fl-geph Binding Intensity [norm.]” value (FL-geph; [3]) is on record?
A: 0.97 norm.

Q: What about the “Native geph Binding Intensity [norm.]” value (native geph; [4]) of the same sequence?
A: 0.97 norm.

Q: What about the “gephE Binding Intensity [norm.]” value (gephE; [5]) of the same sequence?
A: 0.97 norm.

Q: “DLVSNDFSIVGSLPR [GlyRβ_Full_Positional_Scan_046]” was tested. Which “Fl-geph Binding Intensity [norm.]” value (FL-geph; [3]) did it give?
A: 1.27 norm.

Q: What about the “Native geph Binding Intensity [norm.]” value (native geph; [4]) of the same sequence?
A: 1.47 norm.

Q: What about the “gephE Binding Intensity [norm.]” value (gephE; [5]) of the same sequence?
A: 0.94 norm.

Q: Which “Fl-geph Binding Intensity [norm.]” value (FL-geph; [3]) does the source give for “DLRSNDFSQVGSLPR [GlyRβ_Full_Positional_Scan_180, GlyR β 414-428 variant I422Q]” here?
A: 0.53 norm.

Q: And the “Native geph Binding Intensity [norm.]” value (native geph; [4])?
A: 0.32 norm.

Q: And the “gephE Binding Intensity [norm.]” value (gephE; [5])?
A: 0.57 norm.

Q: How did the “Fl-geph Binding Intensity [norm.]” value (FL-geph; [1]) turn out when “DLRSNDFSIVGKLPR [GlyRβ_Full_Positional_Scan_234]” was run?
A: 0.96 norm.

Q: What about the “Native geph Binding Intensity [norm.]” value (native geph; [2]) of the same sequence?
A: 0.47 norm.

Q: And the “gephE Binding Intensity [norm.]” value (gephE; [1])?
A: 0.81 norm.

Q: How did the “Fl-geph Binding Intensity [norm.]” value (FL-geph; [1]) turn out when “DLRSNDFSIVGRLPR [GlyRβ_Full_Positional_Scan_232]” was run?
A: 1.06 norm.

Q: And the “Native geph Binding Intensity [norm.]” value (native geph; [2])?
A: 0.8 norm.

Q: And the “gephE Binding Intensity [norm.]” value (gephE; [1])?
A: 0.87 norm.

Q: “DLRSNDFSIVGSLIR [GlyRβ_Full_Positional_Scan_263]” was tested. Which “Fl-geph Binding Intensity [norm.]” value (FL-geph; [1]) did it give?
A: 0.95 norm.

Q: What about the “Native geph Binding Intensity [norm.]” value (native geph; [2]) of the same sequence?
A: 0.49 norm.

Q: What about the “gephE Binding Intensity [norm.]” value (gephE; [1]) of the same sequence?
A: 0.65 norm.

Q: Which results are given for “DLRSNDQSIVGSLPR [GlyRβ_Full_Positional_Scan_140, GlyR β 414-428 variant F420Q]”?
A: Fl-geph Binding Intensity [norm.] (FL-geph; [3]): 0.66 norm.; Native geph Binding Intensity [norm.] (native geph; [4]): 0.43 norm.; gephE Binding Intensity [norm.] (gephE; [5]): 0.48 norm.

Q: Which results are given for “DLRSNDFSIVGSLRR [GlyRβ_Full_Positional_Scan_272]”?
A: Fl-geph Binding Intensity [norm.] (FL-geph; [1]): 0.93 norm.; Native geph Binding Intensity [norm.] (native geph; [2]): 0.25 norm.; gephE Binding Intensity [norm.] (gephE; [1]): 0.59 norm.

Q: What does the source list for “DLFSNDFSIVGSLPR [GlyRβ_Full_Positional_Scan_047]”?
A: Fl-geph Binding Intensity [norm.] (FL-geph; [3]): 1.29 norm.; Native geph Binding Intensity [norm.] (native geph; [4]): 1.18 norm.; gephE Binding Intensity [norm.] (gephE; [5]): 0.89 norm.

Q: How did the “Fl-geph Binding Intensity [norm.]” value (FL-geph; [3]) turn out when “DLRHNDFSIVGSLPR [GlyRβ_Full_Positional_Scan_073]” was run?
A: 0.84 norm.

Q: What about the “Native geph Binding Intensity [norm.]” value (native geph; [4]) of the same sequence?
A: 0.86 norm.

Q: And the “gephE Binding Intensity [norm.]” value (gephE; [5])?
A: 0.92 norm.

Q: How did the “Fl-geph Binding Intensity [norm.]” value (FL-geph; [3]) turn out when “QLRSNDFSIVGSLPR [GlyRβ_Full_Positional_Scan_020]” was run?
A: 1.16 norm.

Q: What about the “Native geph Binding Intensity [norm.]” value (native geph; [4]) of the same sequence?
A: 1.2 norm.

Q: What about the “gephE Binding Intensity [norm.]” value (gephE; [5]) of the same sequence?
A: 1.19 norm.

Q: How did the “Fl-geph Binding Intensity [norm.]” value (FL-geph; [3]) turn out when “DHRSNDFSIVGSLPR [GlyRβ_Full_Positional_Scan_033]” was run?
A: 0.95 norm.

Q: What about the “Native geph Binding Intensity [norm.]” value (native geph; [4]) of the same sequence?
A: 0.98 norm.

Q: And the “gephE Binding Intensity [norm.]” value (gephE; [5])?
A: 0.91 norm.

Q: With “DLRSNDFCIVGSLPR [GlyRβ_Full_Positional_Scan_157, GlyR β 414-428 variant S421C]” as the sequence, how does the “Fl-geph Binding Intensity [norm.]” value (FL-geph; [3]) read?
A: 0.71 norm.

Q: And the “Native geph Binding Intensity [norm.]” value (native geph; [4])?
A: 0.36 norm.

Q: And the “gephE Binding Intensity [norm.]” value (gephE; [5])?
A: 0.66 norm.

Q: What does the source list for “DLRSNDFSIVGSLPT [GlyRβ_Full_Positional_Scan_296]”?
A: Fl-geph Binding Intensity [norm.] (FL-geph; [1]): 1.37 norm.; Native geph Binding Intensity [norm.] (native geph; [2]): 1.56 norm.; gephE Binding Intensity [norm.] (gephE; [1]): 0.87 norm.

Q: What does the source list for “DLRTNDFSIVGSLPR [GlyRβ_Full_Positional_Scan_076]”?
A: Fl-geph Binding Intensity [norm.] (FL-geph; [3]): 1.09 norm.; Native geph Binding Intensity [norm.] (native geph; [4]): 1.12 norm.; gephE Binding Intensity [norm.] (gephE; [5]): 0.93 norm.

Q: Which “Fl-geph Binding Intensity [norm.]” value (FL-geph; [3]) does the source give for “DIRSNDFSIVGSLPR [GlyRβ_Full_Positional_Scan_023]” here?
A: 1.12 norm.

Q: And the “Native geph Binding Intensity [norm.]” value (native geph; [4])?
A: 1.16 norm.

Q: What about the “gephE Binding Intensity [norm.]” value (gephE; [5]) of the same sequence?
A: 0.95 norm.
